Results reported in patent publication US6180767A, “Peptide nucleic acid conjugates” (Thomas Jefferson University, priority 1997, dated 2001).
Where no end group is shown, it is not given here.

Experiments:
[1] = test system: P6 cells (murine Balb/c3T3 cells transfected with human IGF1R gene); experiment: Cellular uptake of fluoresceinated compounds, confocal fluorescence microscopy; assay type: cell-based; conditions: 1 μM, 4 hours at 37° C., serum-free DMEM
Description: P6 cells, which are murine Balb/c3T3 cells transfected with human insulin-like growth factor receptor (IGF1R) gene, overexpress IGF1R. The cells were plated on LAB TEK 8 well tissue culture "CHAMBER SLIDES" from Nunc, Inc., Naperville, Ill. in 10% FBS/DMEM at a concentration of 20,000 cells/chamber. The cells were allowed to attach and grow for 24 hours in a humidified cell incubator with 5% CO2 at 37° C. The attached cells were then washed with serum-free DMEM and PBS. The cells were incubated for 4 hours at 37° C. with 1 μM of the fluoresceinated PNA-peptide (H-Gly-SEQ ID NO:5/SEQ ID NO: 1) or fluoresceinyl-PNA (H-Gly-SEQ ID NO:5-CONH2) in serum-free DMEM. Human Jurkat cells, which have very low copies of IGF1R (Lal et al., Leukemia Res. 17, 31-35, 1983) were used as a negative control. The Jurkat cells were grown in 10% FBS/RPMI. The Jurkat cells were treated in the same manner as the P6 cells, except that necessary modifications were made in handling the cells as they grow in suspension. […]
The fixed slides were analyzed under laser confocal fluorescence and phase contrast microscopy to observe the cellular uptake of the fluorescent oligomers. […] This is an advantage over conventional fluorescence microscopy, which cannot differentiate between signals inside and outside of the cells.

[2] = test system: tumor cell lines dependent on IGFR1; conditions: Pietrzkowski et al., Cancer Res. 52, 6447-6451, 1992; cited from earlier work
[3] = target: IGF1-R (Homo sapiens, UniProt P08069); conditions: Pietrzkowski et al., Cancer Res. 52, 6447-6451, 1992; cited from earlier work
Chain of IGF1-R (P08069 31-736 limits assumed): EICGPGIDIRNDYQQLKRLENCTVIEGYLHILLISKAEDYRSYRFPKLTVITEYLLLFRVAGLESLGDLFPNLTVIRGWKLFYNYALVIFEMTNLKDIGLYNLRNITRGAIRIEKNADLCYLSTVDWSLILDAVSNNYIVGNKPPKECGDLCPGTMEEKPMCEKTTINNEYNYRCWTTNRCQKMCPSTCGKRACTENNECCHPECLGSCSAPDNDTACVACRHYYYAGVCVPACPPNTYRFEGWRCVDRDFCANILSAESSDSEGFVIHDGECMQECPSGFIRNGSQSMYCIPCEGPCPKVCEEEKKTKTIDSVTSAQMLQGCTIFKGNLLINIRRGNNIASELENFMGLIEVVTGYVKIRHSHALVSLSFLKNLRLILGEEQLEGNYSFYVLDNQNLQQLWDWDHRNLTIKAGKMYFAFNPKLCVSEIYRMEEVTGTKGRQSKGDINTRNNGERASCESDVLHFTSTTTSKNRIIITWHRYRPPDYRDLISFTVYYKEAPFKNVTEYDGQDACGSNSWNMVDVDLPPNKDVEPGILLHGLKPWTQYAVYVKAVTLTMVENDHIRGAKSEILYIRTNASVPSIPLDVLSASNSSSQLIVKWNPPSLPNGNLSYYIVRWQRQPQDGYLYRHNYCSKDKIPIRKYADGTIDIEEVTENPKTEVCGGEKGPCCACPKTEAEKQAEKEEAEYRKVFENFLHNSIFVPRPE
Chain of IGF1-R (P08069 741-1367 partner limits assumed): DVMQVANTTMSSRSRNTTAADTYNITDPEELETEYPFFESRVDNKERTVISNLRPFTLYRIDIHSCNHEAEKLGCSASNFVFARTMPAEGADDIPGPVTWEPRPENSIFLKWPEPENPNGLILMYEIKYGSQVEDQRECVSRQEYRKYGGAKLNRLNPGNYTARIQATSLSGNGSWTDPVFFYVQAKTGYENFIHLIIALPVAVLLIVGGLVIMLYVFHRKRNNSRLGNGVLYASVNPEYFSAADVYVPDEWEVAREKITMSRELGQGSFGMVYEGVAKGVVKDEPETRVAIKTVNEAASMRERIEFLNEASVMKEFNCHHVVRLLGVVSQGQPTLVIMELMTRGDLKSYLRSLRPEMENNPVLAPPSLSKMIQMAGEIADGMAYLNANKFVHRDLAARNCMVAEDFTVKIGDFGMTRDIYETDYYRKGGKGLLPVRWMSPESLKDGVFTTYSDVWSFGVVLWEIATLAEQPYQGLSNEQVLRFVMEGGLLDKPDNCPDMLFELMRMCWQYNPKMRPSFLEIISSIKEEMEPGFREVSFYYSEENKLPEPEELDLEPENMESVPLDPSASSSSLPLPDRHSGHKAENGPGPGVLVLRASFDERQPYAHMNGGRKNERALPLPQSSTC

[4] = Serum stability of the PNA-peptide conjugate; assay type: in vitro ADME; conditions: 10% fetal bovine serum/PBS, 12 hours and 24 hours, reverse phase HPLC
Description: The title conjugate was incubated in 10% fetal bovine serum/PBS for 12 hours and 24 hours. After the incubation, one volume of acetonitrile was added to precipitated protein, which was pelleted by centrifugation. Free conjugate in the supernatant was dried under vacuo. It was then analyzed by reverse phase HPLC as described above.

[5] = test system: P6 cells; experiment: Cellular uptake of [14C]PNA derivatives; assay type: cell-based, murine; conditions: 1 μM 14C-labeled derivatives, FIG. 6
Description: (§1) Uptake studies with radiolabeled PNA derivatives were carried out. P6 or Jurkat cells above were plated in 12.5 cm^2 flasks and grown for two days to 50-80% confluence, on the order of 10^6 cells per flask. The medium was then removed and replaced with fresh medium containing 1 μM of the various [^14 C]PNA derivatives, pre-warmed to 37° C.; background cells received medium with no [^14 C]PNA derivatives. After incubation for various times, attached cells were washed directly in the flasks using four washes--once with fresh medium, once with PBS, once with high salt/low pH buffer, and once with PBS. […]
(§2) After the final wash, the cells were lysed in 1 ml of 1% SDS in H2 O, and the samples were processed for total protein measurement and liquid scintillation counting. 50 μl of the lysate was allocated for total protein measurement, and ^14 C activity in the remaining lysate was measured by liquid scintillation counting, from which background counts were subtracted. […]
(§3) Control samples of varying confluence were trypsinized following the last wash, resuspended in PBS for cell counting, and then lysed to obtain total protein values. […] The curve was used to estimate cell counts from the total protein measurements of treated cells, and radioactivity counts were used to calculate pmoles of oligonucleotide using the specific activity of each labeled oligonucleotide. […]

[6] = test system: Balb/c3T3 cells; experiment: Cellular uptake of [14C]PNA derivatives; assay type: cell-based, murine; conditions: Balb/c3T3 cells (low levels of IGF1R), 14C-labeled derivatives, FIG. 7
[7] = test system: Jurkat cells; experiment: Cellular uptake of [14C]PNA derivatives; assay type: cell-based, Human; conditions: Jurkat cells (virtually no IGF1R), 1 μM 14C-labeled derivatives, FIG. 8
Description: as §1, §2, §3

## O=C1OC2(c3ccc(O)cc3Oc3cc(O)ccc32)c2ccccc21 [fluorescein]
[1]
  cellular uptake (fluorescence within the cells): absence of uptake

## CSKAPKLPAAYC (cysteine pairing not given here) [SEQ ID NO:8]
[2]
  inhibition of proliferation/growth of tumor cell lines: inhibits the growth of certain cancer cell lines
[3]
  competition with the natural ligand for binding to IGF1-R: competes with the natural ligand for binding to IGF1-R

## GCSKAPKLPAALC (cysteine pairing not given here) [SEQ ID NO:4]
[2]
  inhibition of proliferation/growth of tumor cell lines: inhibits the proliferation of tumor cell lines dependent on IGFR1

## H-Gly-CCGCTTCCTTTC-Gly-Gly-Gly-Gly-D-Cys-D-Ser-D-Lys-D-Cys-NH2 [title PNA-peptide conjugate]
[4]
  stability of the conjugate in serum: stability of the conjugate was confirmed
[5]
  uptake relative to control PNA or control PNA-peptide: five-fold more uptake
[6]
  uptake relative to the controls: four-fold excess
[7]
  uptake relative to the controls: little preferential uptake
